Assay results: patent US20100048733A1, “PENETRATION ENHANCER FOR FUNGICIDES” (Bayer CropScience AG, priority 2006, published 2010)
“Also recorded” adds a separate entry of the source.

Key:
[1] = Penetration test: active substance penetration through enzymatically isolated apple leaf cuticles in diffusion cells, radioactively marked active substance; format: in vitro ADME, apple trees of the Golden Delicious variety
Experimental: In this test, the penetration of active substances through enzymatically isolated cuticles of apple tree leaves was measured.
Leaves which were cut off in the stage of full development of apple trees of the Golden Delicious variety were used. The isolation of the cuticles was effected in a manner such that • first, leaf disks marked on the underside with dye and punched out were filled by means of vacuum infiltration with a pectinase solution (0.2 to 2% strength by weight) buffered to a pH between 3 and 4, • sodium azide was then added and • the leaf disks thus treated were allowed to stand until disintegration of the original leaf structure and detachment of the noncellular cuticle.
Thereafter, only those cuticles of the upper sides of the leaves which were free of stomata and hairs were further used. They were washed several times alternately with water and a buffer solution at pH 7. The cleaned cuticles obtained were finally drawn onto small Teflon plates and smoothed and dried with a gentle air jet.
In the next step, the cuticle membranes thus obtained were placed in stainless steel diffusion cells (=transport chambers) for membrane transport investigations. For this purpose, the cuticles were placed by means of forceps centrally on the silicone grease-coated edges of the diffusion cells and closed with a likewise greased ring. The arrangement was chosen so that the morphological outside of the cuticles faced outward, i.e. toward the air, while the original inside faced the interior of the diffusion cell. The diffusion cells were filled with water or with a mixture of water and solvent.
For determining the penetration, in each case 10 μl of a spray liquor of the composition mentioned in the examples were applied to the outside of a cuticle.
In each case the solvents listed below in the table (tap water or a mixture with 20% by weight of acetone/80% by weight of tap water) were used in the spray liquors.
After the application of the spray liquors, in each case the solvent was allowed to evaporate, and in each case the chambers were then turned around and placed in thermostated trays, air having a defined temperature and atmospheric humidity being blown onto the outside of the cuticle. The incipient penetration therefore took place at a relative humidity of 60% and a set temperature of 20 or 25° C. The active substance penetration was measured with radioactively marked active substance.

crop plant = experiment: Crop plant tolerance tests; format: in vivo; details: compared with other alkyl ester additives; no data shown
[2] = penetration of tebuconazole 0.3 g/l, without or with 2.0 g/l penetration enhancer, acetone/tap water 20/80% by weight, apple leaf cuticles, T = 20-25° C., rel. humidity 56-60%, mean of 4-8 repetitions

## CC(C)(C)C(O)(CCc1ccc(Cl)cc1)Cn1cncn1 (centres unmarked) [tebuconazole]
[1]; [2]
  % Penetration (after 3 hours): 0.9%
  % Penetration (after 24 hours): 1.1%

## O=C(NCc1ncc(C(F)(F)F)cc1Cl)c1c(Cl)cccc1Cl [fluopicolid, 2,6-dichloro-N-[[3-chloro-5-(trifluoromethyl)-2-pyridinyl]methyl]benzamide]
[1]; apple tree, 3 h, 0.3 g/l
  % Penetration (after hours): 3 hours: 0.1 (3) %
[1]; apple tree, 24 h, 0.3 g/l
  % Penetration (after hours): 24 hours: 0.6 (24) %

## CCCCOCCOP(=O)(OCCOCCCC)OCCOCCCC [TBEP, tributoxyethyl phosphate]
Crop plant
  Crop plant tolerance: more tolerant than other alkyl ester additives
[1]; summary of tables 1 and 2, 2.0 g/l TBEP with 0.3 g/l fungicide
  Effect of the penetration enhancer on uptake of the active substances (in words): considerable increase in uptake of the active substances; also recorded: advantageously higher increase in uptake of active substances than the penetration enhancers of the prior art

## OC(Cc1ccccc1Cl)(Cn1nc[nH]c1=S)C1(Cl)CC1 (centres unmarked) [prothioconazole]
[1]; after 3 h, 0.3 g/l active substance, without or with 2.0 g/l TBEP, acetone/tap water 20/80% by weight, apple leaf cuticles, T = 20-25° C., rel. humidity 56-60%, mean of 4-8 repetitions
  % Penetration (after hours): 3 hours: 0.04 (3) %
[1]; after 24 h, 0.3 g/l active substance, without or with 2.0 g/l TBEP, acetone/tap water 20/80% by weight, apple leaf cuticles, T = 20-25° C., rel. humidity 56-60%, mean of 4-8 repetitions
  % Penetration (after hours): 24 hours: 0.6 (24) %
